Data taken from patent publication US20240148714A1, “Triple Negative Breast Cancer Treatment Method” (Exelixis, Inc., priority 2016, published 2024).
Where “and” joins values, the source holds several entries; their conditions need not be identical. Equal values may be shown once.

Tests used:
[1] = system: metastatic TNBC; assay: Phase II study of cabozantinib in metastatic TNBC: objective response (RECIST 1.1), clinical benefit, PFS; type: in vivo, human
Method: (§1) Experimental design: In this single-arm, two-stage phase 2 study, patients with metastatic TNBC with measurable disease by RECIST and up to 3 lines of prior chemotherapy for metastatic disease received cabozantinib 60 mg daily on a 21-day cycle. Patients were restaged 6 weeks following treatment initiation and every 9 weeks thereafter. The primary endpoint was objective response rate (ORR). Predefined secondary endpoints included progression free survival (PFS) and toxicity. Here, we examined cellular biomarkers using flow cytometry in serial blood samples collected at days 0 (baseline/pre-treatment), 8, 22, 43, and 64 of cabozantinib treatment. Mixed effect models were used to evaluate the changes of biomarker levels over time from baseline to day 64. Wilcoxon signed rank test were used to evaluate whether the change of biomarker levels from baseline to day 8 were different by clinical benefit. Adjusted p-values controlling false discovery rate were used to adjust for multiple comparisons.
(§2) Study Design and Treatment: As indicated, this was a single-arm, two-stage phase II study assessing the efficacy of cabozantinib monotherapy in patients with mTNBC. Treatment consisted of oral dosing of cabozantinib at 60 mg daily over a 21-day cycle. Patients underwent radiographic restaging at 6 weeks and every 9 weeks thereafter. Patients with complete or partial RECIST responses continued to receive study treatment, whereas those with progressive disease were taken off study. Dose reductions for toxicity occurred if patients experienced grade 3 or 4 neutropenia or thrombocytopenia, or nonhematologic adverse events. From the starting dose of 60 mg daily, doses were reduced as needed to 40 and 20 mg daily. For the purposes of determining the effect of cabozantinib treatment on pain and analgesic medication use, pain was assessed by a participant-reported questionnaire, and daily analgesic medication usage was recorded. These were completed at baseline and during week 3, 6, and every 6 weeks thereafter until the date of the participant's last follow-up visit.
(§3) The primary endpoint was the activity of cabozantinib, as defined by objective response rate (ORR) in patients with mTNBC. Predefined secondary endpoints included progression-free survival (PFS), toxicity, and pain. Correlative studies included analysis of MET and phospho-MET expression in archival tumor tissue, and molecular and cellular biomarkers of cabozantinib. Cellular biomarkers were examined using flow cytometry in serial blood samples collected at days 0 (baseline/pre-treatment), 8, 22, 43, and 64 of cabozantinib treatment. Mixed effect models were used to evaluate the changes of biomarker levels over time from baseline to day 64. Wilcoxon signed rank test were used to evaluate whether the change of biomarker levels from baseline to day 8 were different by clinical benefit. Adjusted p-values controlling false discovery rate were used to adjust for multiple comparisons.
Statistical Analysis: This study used Simon optimal two-stage design to control type I error at 10% and have at least 90% power to detect the acceptable response rate. By study design, 13 participants were to be enrolled in the first stage. If there was at least 1 response, accrual was to continue to the second stage, where an additional 22 patients were to be enrolled. If there were at least 4 responses among the 35 total patients, the regimen was to be considered worthy of further study. With a true response rate of 5%, the chance that the regimen would be declared worthy of further study was 10%, and with a true response rate of 20%, the chance that the regimen would be declared worthy of further study was 90%.
Objective response was evaluated by using RECIST1.1. […] Objective response rate was reported with 95% confidence interval (CI) for the two stage designs. PFS and 95% CI were described using Kaplan-Meier methods. […]

[2] = Phase II study in metastatic TNBC: toxicity / adverse events; type: in vivo, human
Method: as §1, §2, §3

With COc1cc2nccc(Oc3ccc(NC(=O)C4(C(=O)Nc5ccc(F)cc5)CC4)cc3)c2cc1OC [cabozantinib] the “clinical benefit rate (PR+SD) at 15 weeks” value ([1]; 60 mg daily, 35 patients) was 34%, the “median PFS” value ([1]; 60 mg daily, 35 patients) was 2.0 months and the “objective response rate (ORR)” value ([1]; 60 mg daily, 35 patients, as previously reported (ASCO 2015)) was 11%. The “objective response rate (ORR)” value ([1]; 60 mg daily, 35 patients, confirmed PR, RECIST 1.1) was 9%, the “time on treatment of individual patients with PR” value ([1]; 17 cycles and 8 cycles of protocol therapy) was 11.7 months and 6.5 months and the “Best overall response: Not evaluated due to toxicity” value ([1]; 35 patients) was 1 (3) n (%). The “Best overall response: PD” value ([1]; 35 patients) was 11 (31) n (%), the “Best overall response: PR” value ([1]; 35 patients) was 3 (9) n (%) and the “Best overall response: SD” value ([1]; 35 patients) was 20 (57) n (%). The “Best overall response: SD <15 weeks” value ([1]; 35 patients) was 11 (31) n (%), the “Best overall response: SD ≥15 weeks” value ([1]; 35 patients) was 9 (26) n (%) and the “median PFS” value ([1]; high baseline sMET (>795 ng/mL median value)) was 3.3 months. For the same compound, the “patients off treatment due to progressive disease” value ([1]; human, in vivo) was 91%, the “patients with clinically progressive disease before protocol specified tumor assessment” value ([1]; included in PD) was “^aIncluding 7 patients(20%) with clinically progressive disease before protocol specified tumor assessment” and the “median PFS” value ([1]; low baseline sMET (<795 ng/mL)) was 1.3 months. For the same compound, the “patients who achieved PR” value ([1]; of 35 patients) was 3 patients, the “number of grade 3 adverse events” value ([2]; 35 patients) was 15 and the Anorexia ([2]; Maximum grade Mild) was 10. It also gave a Bone pain ([2]; Maximum grade Mild) of 0, a Diarrhea ([2]; Maximum grade Mild) of 8 and a Dysgeusia ([2]; Maximum grade Mild) of 5. For the same compound, the Elavated lipase ([2]; Maximum grade Mild) was 0, the Elevated alanine aminotransferase ([2]; Maximum grade Mild) was 6 and the Elevated aspartate aminotransferase ([2]; Maximum grade Mild) was 7. For the same compound, the Fatigue ([2]; Maximum grade Mild) was 18, the Hypertension ([2]; Maximum grade Mild) was 6 and the Hypophosphatemia ([2]; Maximum grade Mild) was 0. The Infection ([2]; Maximum grade Mild) was 0, the Nausea ([2]; Maximum grade Mild) was 10 and the Oral mucositis ([2]; Maximum grade Mild) was 11. For the same compound, the PPE ([2]; Maximum grade Mild) was 3, the “Prolonged activated partial thromboplastin time” value ([2]; Maximum grade Mild) was 0 and the Thromboembolic event ([2]; Maximum grade Mild) was 0. The Wound dehiscence ([2]; Maximum grade Mild) was 0, the Anorexia ([2]; Maximum grade Moderate) was 2 and the Bone pain ([2]; Maximum grade Moderate) was 0. It also gave a Diarrhea ([2]; Maximum grade Moderate) of 6, a Dysgeusia ([2]; Maximum grade Moderate) of 2 and an Elavated lipase ([2]; Maximum grade Moderate) of 0. It also gave an Elevated alanine aminotransferase ([2]; Maximum grade Moderate) of 0, an Elevated aspartate aminotransferase ([2]; Maximum grade Moderate) of 3 and a Fatigue ([2]; Maximum grade Moderate) of 9. The Hypertension ([2]; Maximum grade Moderate) was 4, the Hypophosphatemia ([2]; Maximum grade Moderate) was 0 and the Infection ([2]; Maximum grade Moderate) was 0. The Nausea ([2]; Maximum grade Moderate) was 0, the Oral mucositis ([2]; Maximum grade Moderate) was 2 and the PPE ([2]; Maximum grade Moderate) was 9. For the same compound, the “Prolonged activated partial thromboplastin time” value ([2]; Maximum grade Moderate) was 0, the Thromboembolic event ([2]; Maximum grade Moderate) was 0 and the Wound dehiscence ([2]; Maximum grade Moderate) was 0. The Anorexia ([2]; Maximum grade Severe) was 0, the Bone pain ([2]; Maximum grade Severe) was 1 and the Diarrhea ([2]; Maximum grade Severe) was 0. For the same compound, the Dysgeusia ([2]; Maximum grade Severe) was 0, the Elavated lipase ([2]; Maximum grade Severe) was 3 and the Elevated alanine aminotransferase ([2]; Maximum grade Severe) was 1. It also gave an Elevated aspartate aminotransferase ([2]; Maximum grade Severe) of 2, a Fatigue ([2]; Maximum grade Severe) of 0 and a Hypertension ([2]; Maximum grade Severe) of 2. The Hypophosphatemia ([2]; Maximum grade Severe) was 1, the Infection ([2]; Maximum grade Severe) was 1 and the Nausea ([2]; Maximum grade Severe) was 0. For the same compound, the Oral mucositis ([2]; Maximum grade Severe) was 0, the PPE ([2]; Maximum grade Severe) was 1 and the “Prolonged activated partial thromboplastin time” value ([2]; Maximum grade Severe) was 1. The Thromboembolic event ([2]; Maximum grade Severe) was 1, the Wound dehiscence ([2]; Maximum grade Severe) was 1 and the Anorexia ([2]; all grades) was 12 (34) Total (% of 35). The Bone pain ([2]; all grades) was 1 (3) Total (% of 35), the Diarrhea ([2]; all grades) was 14 (40) Total (% of 35) and the Dysgeusia ([2]; all grades) was 7 (20) Total (% of 35). For the same compound, the Elavated lipase ([2]; all grades) was 3 (9) Total (% of 35), the Elevated alanine aminotransferase ([2]; all grades) was 7 (20) Total (% of 35) and the Elevated aspartate aminotransferase ([2]; all grades) was 12 (34) Total (% of 35). The Fatigue ([2]; all grades) was 27 (77) Total (% of 35), the Hypertension ([2]; all grades) was 12 (34) Total (% of 35) and the Hypophosphatemia ([2]; all grades) was 1 (3) Total (% of 35). The Infection ([2]; all grades) was 1 (3) Total (% of 35), the Nausea ([2]; all grades) was 10 (29) Total (% of 35) and the Oral mucositis ([2]; all grades) was 13 (37) Total (% of 35). The PPE ([2]; all grades) was 13 (37) Total (% of 35), the “Prolonged activated partial thromboplastin time” value ([2]; all grades) was 1 (3) Total (% of 35) and the Thromboembolic event ([2]; all grades) was 1 (3) Total (% of 35). The Wound dehiscence ([2]; all grades) was 1 (3) Total (% of 35), the Diarrhea ([2]; all grades, possibly related) was 40% and the Fatigue ([2]; all grades, possibly related) was 77%. The Oral mucositis ([2]; all grades, possibly related) was 37%, the “palmar-plantar erythrodysesthesia (PPE)” value ([2]; all grades, possibly related) was 37% and the “patients requiring dose reduction” value ([2]; from 60 mg daily) was 34%. The “dose reduction due to PPE” value ([2]; in vivo) was 4 patients, the “dose reduction due to other toxicities” value ([2]; in vivo) was 8 patients and the “grade 3 elevated aspartate aminotransferase” value ([2]; in vivo) was 2 n. For the same compound, the “grade 3 elevated lipase” value ([2]; in vivo) was 3 n, the “grade 3 hypertension” value ([2]; in vivo) was 2 n and the “grade 4 toxicities” value ([2]; in vivo) was “no grade 4 toxicities”. The “patients off treatment due to toxicity” value ([2]; in vivo) was 9%, the “patients who omitted at least one dose due to toxicity” value ([2]; in vivo) was 26 patients and the tolerability ([2]; in vivo) was “well tolerated”.
